Experimental data taken from patent publication US10603292B2 (Boehringer Ingelheim International GmbH, priority 2017, dated 2020).

Tests used:
[1] = tested on: oxygen-induced retinopathy (OIR) mouse model; assay: Neovascular tuft formation in oxygen-induced retinopathy (OIR) mouse model; settings: neonatal mice, 1.8 mg/kg s.c. at P12 and P14, read at P16, vs vehicle control
Experimental: Application volume was 10 ml/kg. Control animals received vehicle only.
In this context P means postnatal day. […] Starting from P12, the avascular area begins to revascularize and at the same time neovascular tufts protrude towards the vitreous. At P16 and P17, aberrant pathological neovascularization peaks and revascularization is still incomplete. Mouse eyes were enucleated, fixed in 4% PFA for at least 24 h, and embedded in paraffin. Every 3rd slide from serial sections (6 μm thick) was taken from around the region of the optic nerve. The PAS-stained sections were examined for the presence of neovascular tufts projecting into the vitreous from the inner limiting membrane of the retina. The neovascular score was defined as the mean number of neovascular cell nuclei per section found in ten sections (five on each side of the optic nerve) per eye. Tufts adjacent to the optic nerve (up to 90 μm from each side) were discriminated from counting. Data are represented as mean of 10 slides ±SEM counted tuft cells with one-way ANOVA testing and p<0.05 regarded as significant.

[2] = tested on: STZ-induced diabetic rat model; assay: Retinal function (ERG light sensitivity) in STZ-induced diabetic rat model; assay type: in vivo; settings: STZ diabetic rats, 1.8 mg/kg orally twice daily for 5 weeks; group 3 compared to diabetic vehicle group 2
Experimental: Male Brown Norway rats (BN rats) were obtained from Charles River (Germany). Hyperglycemia was induced by i.p. injections of STZ (65 mg/kg body weight). […] API was used in the form of its hydrochloride. Retinal function was assessed via electroretinography (ERG) recordings. ERG is a non-invasive electrophysiological technique to assess light-induced electrical activity of different retinal neurons, and allows for quantifying different aspects of retinal function such as dim light or color vision. After induction of diabetes via i.p. STZ application (day 1), diabetic (hyperglycemic) animals were randomized into groups of similar blood glucose concentrations (>20 mM at day 5). At week 5 post diabetes induction, ERG recordings were performed to quantify the extent of neuronal dysfunction in the retina. […] The light sensitivity of rod-driven ERG b-wave responses is a measure for the number of neurons participating in the rod-driven retinal pathway (in particular photoreceptors and downstream bipolar cells), and their sensitivity towards light stimuli in order to produce depolarizing light responses. […]

[3] = biological target: T1, AOC3 (Mus musculus, UniProt O70423); assay: AOC3 activity in sentinel lung tissue homogenates of OIR mice; settings: 1.8 mg/kg s.c.
T1 sequence (O70423 1-765): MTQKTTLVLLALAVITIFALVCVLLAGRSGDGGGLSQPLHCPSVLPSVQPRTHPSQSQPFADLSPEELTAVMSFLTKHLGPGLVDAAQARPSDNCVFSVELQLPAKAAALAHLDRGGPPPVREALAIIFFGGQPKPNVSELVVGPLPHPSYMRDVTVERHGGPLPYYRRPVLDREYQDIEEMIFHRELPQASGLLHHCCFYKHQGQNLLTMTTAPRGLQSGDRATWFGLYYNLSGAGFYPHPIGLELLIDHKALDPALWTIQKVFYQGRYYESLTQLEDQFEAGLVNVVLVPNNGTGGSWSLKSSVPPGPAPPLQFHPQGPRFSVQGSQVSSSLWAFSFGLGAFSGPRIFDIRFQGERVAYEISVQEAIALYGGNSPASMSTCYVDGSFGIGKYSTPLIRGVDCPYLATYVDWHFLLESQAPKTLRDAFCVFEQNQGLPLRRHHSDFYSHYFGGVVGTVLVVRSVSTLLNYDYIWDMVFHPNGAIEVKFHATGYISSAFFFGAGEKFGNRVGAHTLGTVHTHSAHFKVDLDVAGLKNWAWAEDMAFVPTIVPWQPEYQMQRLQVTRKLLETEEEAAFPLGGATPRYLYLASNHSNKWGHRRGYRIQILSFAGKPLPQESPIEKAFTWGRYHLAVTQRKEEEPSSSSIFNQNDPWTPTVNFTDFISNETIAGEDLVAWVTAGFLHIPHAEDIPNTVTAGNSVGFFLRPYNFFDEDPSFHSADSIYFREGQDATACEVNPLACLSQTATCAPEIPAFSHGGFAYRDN

Row | Compound | Reduction of retinal neovascular tuft formation (tuft number) [1] [%] | Increase in normalized light sensitivity of rod-driven ERG b-wave responses [2] [%] | Inhibition of AOC3 activity in sentinel lung tissue homogenates [3]
1 | CC(C)(C)NC(=O)c1ccc(OC/C(=C/F)CN)cc1 [API, (E)-4-(2-(aminomethyl)-3-fluoroallyloxy)-N-tert-butylbenzamide] | 49 | ~30 | –
2 | C[C@@H]1C[C@H]2[C@@H]3CCC4=CC(=O)C=C[C@]4(C)[C@@]3(F)[C@@H](O)C[C@]2(C)[C@@]1(O)C(=O)CO [Dexamethasone] | 57 | – | no significant effect
